# Results published in PubChem BioAssay (NCI).
#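 Interpolation was linear, between the two tested concentrations surrounding the appropriate level; five concentrations were tested over 48 hours in 96-well plates. TGI: total growth inhibition.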
# Assays:
# Test in all cases: NCI-60 cell line screen, 48 h
# SF-295 CNS = system: SF-295 CNS
# MDA-MB-435 = system: MDA-MB-435
# CAKI-1 renal = system: CAKI-1 renal
# UO-31 renal = system: UO-31 renal
# SN12C renal = system: SN12C renal
# ACHN renal = system: ACHN renal
# RXF 393 renal = system: RXF 393 renal
# MDA-N = system: MDA-N
# M14 melanoma = system: M14 melanoma
# SK-MEL-5 melanoma = system: SK-MEL-5 melanoma
# HCC-2998 colon = system: HCC-2998 colon
# HS 578T breast = system: HS 578T breast
# EKVX NSCLC = system: EKVX NSCLC
# SNB-19 CNS = system: SNB-19 CNS
# KM12 colon = system: KM12 colon
# HL-60(TB) leukemia = system: HL-60(TB) leukemia
# SR leukemia = system: SR leukemia
# 786-0 renal = system: 786-0 renal
# BT-549 breast = system: BT-549 breast
# A498 renal = system: A498 renal
# DU-145 prostate = system: DU-145 prostate
# MOLT-4 leukemia = system: MOLT-4 leukemia
# NCI-H460 lung = system: NCI-H460 lung
# HOP-62 NSCLC = system: HOP-62 NSCLC
# NCI/ADR-RES ovarian = system: NCI/ADR-RES ovarian
# SF-268 CNS = system: SF-268 CNS
# MCF7 breast = system: MCF7 breast
# HCT-15 colon = system: HCT-15 colon
# SK-MEL-2 melanoma = system: SK-MEL-2 melanoma
# SW-620 colon = system: SW-620 colon
# SNB-75 CNS = system: SNB-75 CNS
# RPMI-8226 leukemia = system: RPMI-8226 leukemia
# UACC-257 melanoma = system: UACC-257 melanoma
# OVCAR-5 ovarian = system: OVCAR-5 ovarian
# HOP-92 NSCLC = system: HOP-92 NSCLC
# NCI-H522 lung = system: NCI-H522 lung
# K-562 leukemia = system: K-562 leukemia
# PC-3 prostate = system: PC-3 prostate
# COLO 205 colon = system: COLO 205 colon
# MALME-3M melanoma = system: MALME-3M melanoma
# HT29 colon = system: HT29 colon
# A549 NSCLC = system: A549 NSCLC
# UACC-62 melanoma = system: UACC-62 melanoma
# IGROV1 ovarian = system: IGROV1 ovarian
# MDA-MB-231 breast = system: MDA-MB-231 breast
# HCT-116 colon = system: HCT-116 colon
# SK-MEL-28 melanoma = system: SK-MEL-28 melanoma
# NCI-H23 lung = system: NCI-H23 lung
# CCRF-CEM leukemia = system: CCRF-CEM leukemia
# U251 CNS = system: U251 CNS
# SF-539 CNS = system: SF-539 CNS
# T-47D breast = system: T-47D breast
# LOX IMVI melanoma = system: LOX IMVI melanoma
# OVCAR-3 ovarian = system: OVCAR-3 ovarian
# OVCAR-8 ovarian = system: OVCAR-8 ovarian
# OVCAR-4 ovarian = system: OVCAR-4 ovarian
# NCI-H226 lung = system: NCI-H226 lung
# SK-OV-3 ovarian = system: SK-OV-3 ovarian
# TK-10 renal = system: TK-10 renal
compound,measurement,setting,value
CC1(C)Oc2ccc3ccc(=O)oc3c2C(O)C1O (stereo not drawn),TGI,SF-295 CNS,> 100 µM
same,TGI,MDA-MB-435,> 100 µM
same,TGI,CAKI-1 renal,> 100 µM
same,TGI,UO-31 renal,> 100 µM
same,TGI,SN12C renal,> 100 µM
same,TGI,ACHN renal,> 100 µM
same,TGI,RXF 393 renal,> 100 µM
same,TGI,MDA-N,> 100 µM
same,TGI,M14 melanoma,> 100 µM
same,TGI,SK-MEL-5 melanoma,29.4 µM
same,TGI,HCC-2998 colon,> 100 µM
same,TGI,HS 578T breast,> 100 µM
same,TGI,EKVX NSCLC,> 100 µM
same,TGI,SNB-19 CNS,> 100 µM
same,TGI,KM12 colon,> 100 µM
same,TGI,HL-60(TB) leukemia,> 100 µM
same,TGI,SR leukemia,> 100 µM
same,TGI,786-0 renal,> 100 µM
same,TGI,BT-549 breast,60.9 µM
same,TGI,A498 renal,> 100 µM
same,TGI,DU-145 prostate,> 100 µM
same,TGI,MOLT-4 leukemia,53 µM
same,TGI,NCI-H460 lung,> 100 µM
same,TGI,HOP-62 NSCLC,> 100 µM
same,TGI,NCI/ADR-RES ovarian,> 100 µM
same,TGI,SF-268 CNS,> 100 µM
same,TGI,MCF7 breast,> 100 µM
same,TGI,HCT-15 colon,> 100 µM
same,TGI,SK-MEL-2 melanoma,> 100 µM
same,TGI,SW-620 colon,> 100 µM
same,TGI,SNB-75 CNS,> 100 µM
same,TGI,RPMI-8226 leukemia,97.9 µM
same,TGI,UACC-257 melanoma,94.9 µM
same,TGI,OVCAR-5 ovarian,> 100 µM
same,TGI,HOP-92 NSCLC,> 100 µM
same,TGI,NCI-H522 lung,> 100 µM
same,TGI,K-562 leukemia,> 100 µM
same,TGI,PC-3 prostate,> 100 µM
same,TGI,COLO 205 colon,45.1 µM
same,TGI,MALME-3M melanoma,> 100 µM
same,TGI,HT29 colon,71.3 µM
same,TGI,A549 NSCLC,> 100 µM
same,TGI,UACC-62 melanoma,> 100 µM
same,TGI,IGROV1 ovarian,> 100 µM
same,TGI,MDA-MB-231 breast,> 100 µM
same,TGI,HCT-116 colon,> 100 µM
same,TGI,SK-MEL-28 melanoma,> 100 µM
same,TGI,NCI-H23 lung,> 100 µM
same,TGI,CCRF-CEM leukemia,96.9 µM
same,TGI,U251 CNS,> 100 µM
same,TGI,SF-539 CNS,47.8 µM
same,TGI,T-47D breast,> 100 µM
same,TGI,LOX IMVI melanoma,> 100 µM
same,TGI,OVCAR-3 ovarian,> 100 µM
same,TGI,OVCAR-8 ovarian,> 100 µM
same,TGI,OVCAR-4 ovarian,> 100 µM
same,TGI,NCI-H226 lung,> 100 µM
CC1OC(OC2C(O)COC(OC3C(C)OC(OC4C(OC(=O)[C@]56CCC(C)(C)C[C@@H]5C5=CCC7[C@@]8(C)C[C@H](O)[C@H](OC9OC(CO)C(O)C(O)C9O)[C@@](C)(CO)[C@@H]8CC[C@@]7(C)[C@]5(C)CC6)OCC(O)C4O)C(O)C3O)C2O)C(O)C(O)C1O (stereo partly drawn),TGI,SF-295 CNS,48 µM
same,TGI,MDA-MB-435,57.7 µM
same,TGI,CAKI-1 renal,32 µM
same,TGI,UO-31 renal,28.4 µM
same,TGI,SN12C renal,44.4 µM
same,TGI,ACHN renal,44.3 µM
same,TGI,RXF 393 renal,33.5 µM
same,TGI,MDA-N,42.3 µM
same,TGI,M14 melanoma,41.9 µM
same,TGI,SK-MEL-5 melanoma,39.8 µM
same,TGI,HCC-2998 colon,38 µM
same,TGI,HS 578T breast,60.4 µM
same,TGI,EKVX NSCLC,33.1 µM
same,TGI,SNB-19 CNS,38.7 µM
same,TGI,KM12 colon,> 100 µM
same,TGI,SR leukemia,46.9 µM
same,TGI,786-0 renal,38 µM
same,TGI,BT-549 breast,45.7 µM
same,TGI,A498 renal,36 µM
same,TGI,DU-145 prostate,37.5 µM
same,TGI,MOLT-4 leukemia,48.7 µM
same,TGI,NCI-H460 lung,48.6 µM
same,TGI,HOP-62 NSCLC,37.7 µM
same,TGI,NCI/ADR-RES ovarian,44.9 µM
same,TGI,SF-268 CNS,49.4 µM
same,TGI,MCF7 breast,> 100 µM
same,TGI,HCT-15 colon,50.8 µM
same,TGI,SW-620 colon,46.5 µM
same,TGI,SNB-75 CNS,39 µM
same,TGI,RPMI-8226 leukemia,> 100 µM
same,TGI,UACC-257 melanoma,37 µM
same,TGI,OVCAR-5 ovarian,36.4 µM
same,TGI,HOP-92 NSCLC,45.2 µM
same,TGI,NCI-H522 lung,> 100 µM
same,TGI,K-562 leukemia,> 100 µM
same,TGI,PC-3 prostate,38.3 µM
same,TGI,COLO 205 colon,38.7 µM
same,TGI,MALME-3M melanoma,64.3 µM
same,TGI,HT29 colon,48.8 µM
same,TGI,A549 NSCLC,43.6 µM
same,TGI,UACC-62 melanoma,40.1 µM
same,TGI,MDA-MB-231 breast,40.2 µM
same,TGI,HCT-116 colon,57.2 µM
same,TGI,SK-MEL-28 melanoma,32.2 µM
same,TGI,NCI-H23 lung,51.2 µM
same,TGI,CCRF-CEM leukemia,45.8 µM
same,TGI,SK-OV-3 ovarian,37.8 µM
same,TGI,U251 CNS,54.9 µM
same,TGI,SF-539 CNS,42.8 µM
same,TGI,T-47D breast,47.4 µM
same,TGI,LOX IMVI melanoma,46 µM
same,TGI,TK-10 renal,35.3 µM
same,TGI,OVCAR-3 ovarian,40.6 µM
same,TGI,OVCAR-8 ovarian,43.4 µM
same,TGI,OVCAR-4 ovarian,52.1 µM
same,TGI,NCI-H226 lung,50.2 µM
